The results in this text go back to ChEMBL document CHEMBL4840382, “Novel Substituted Heteroaryl Compounds for Treating Huntington's Disease” (ACS Med Chem Lett, 2021).

Structures are written as SMILES.

The target of this assay is Huntingtin (Homo sapiens, UniProt P42858). As to the kind of experiment: Inhibition of endogenous Huntingtin protein (unknown origin) incubated for overnight in presence of MW1/MAB2166 monoclonal antibody by ELISA-based MSD electrochemiluminescence assay.
Chain of Huntingtin (P42858 whole entry): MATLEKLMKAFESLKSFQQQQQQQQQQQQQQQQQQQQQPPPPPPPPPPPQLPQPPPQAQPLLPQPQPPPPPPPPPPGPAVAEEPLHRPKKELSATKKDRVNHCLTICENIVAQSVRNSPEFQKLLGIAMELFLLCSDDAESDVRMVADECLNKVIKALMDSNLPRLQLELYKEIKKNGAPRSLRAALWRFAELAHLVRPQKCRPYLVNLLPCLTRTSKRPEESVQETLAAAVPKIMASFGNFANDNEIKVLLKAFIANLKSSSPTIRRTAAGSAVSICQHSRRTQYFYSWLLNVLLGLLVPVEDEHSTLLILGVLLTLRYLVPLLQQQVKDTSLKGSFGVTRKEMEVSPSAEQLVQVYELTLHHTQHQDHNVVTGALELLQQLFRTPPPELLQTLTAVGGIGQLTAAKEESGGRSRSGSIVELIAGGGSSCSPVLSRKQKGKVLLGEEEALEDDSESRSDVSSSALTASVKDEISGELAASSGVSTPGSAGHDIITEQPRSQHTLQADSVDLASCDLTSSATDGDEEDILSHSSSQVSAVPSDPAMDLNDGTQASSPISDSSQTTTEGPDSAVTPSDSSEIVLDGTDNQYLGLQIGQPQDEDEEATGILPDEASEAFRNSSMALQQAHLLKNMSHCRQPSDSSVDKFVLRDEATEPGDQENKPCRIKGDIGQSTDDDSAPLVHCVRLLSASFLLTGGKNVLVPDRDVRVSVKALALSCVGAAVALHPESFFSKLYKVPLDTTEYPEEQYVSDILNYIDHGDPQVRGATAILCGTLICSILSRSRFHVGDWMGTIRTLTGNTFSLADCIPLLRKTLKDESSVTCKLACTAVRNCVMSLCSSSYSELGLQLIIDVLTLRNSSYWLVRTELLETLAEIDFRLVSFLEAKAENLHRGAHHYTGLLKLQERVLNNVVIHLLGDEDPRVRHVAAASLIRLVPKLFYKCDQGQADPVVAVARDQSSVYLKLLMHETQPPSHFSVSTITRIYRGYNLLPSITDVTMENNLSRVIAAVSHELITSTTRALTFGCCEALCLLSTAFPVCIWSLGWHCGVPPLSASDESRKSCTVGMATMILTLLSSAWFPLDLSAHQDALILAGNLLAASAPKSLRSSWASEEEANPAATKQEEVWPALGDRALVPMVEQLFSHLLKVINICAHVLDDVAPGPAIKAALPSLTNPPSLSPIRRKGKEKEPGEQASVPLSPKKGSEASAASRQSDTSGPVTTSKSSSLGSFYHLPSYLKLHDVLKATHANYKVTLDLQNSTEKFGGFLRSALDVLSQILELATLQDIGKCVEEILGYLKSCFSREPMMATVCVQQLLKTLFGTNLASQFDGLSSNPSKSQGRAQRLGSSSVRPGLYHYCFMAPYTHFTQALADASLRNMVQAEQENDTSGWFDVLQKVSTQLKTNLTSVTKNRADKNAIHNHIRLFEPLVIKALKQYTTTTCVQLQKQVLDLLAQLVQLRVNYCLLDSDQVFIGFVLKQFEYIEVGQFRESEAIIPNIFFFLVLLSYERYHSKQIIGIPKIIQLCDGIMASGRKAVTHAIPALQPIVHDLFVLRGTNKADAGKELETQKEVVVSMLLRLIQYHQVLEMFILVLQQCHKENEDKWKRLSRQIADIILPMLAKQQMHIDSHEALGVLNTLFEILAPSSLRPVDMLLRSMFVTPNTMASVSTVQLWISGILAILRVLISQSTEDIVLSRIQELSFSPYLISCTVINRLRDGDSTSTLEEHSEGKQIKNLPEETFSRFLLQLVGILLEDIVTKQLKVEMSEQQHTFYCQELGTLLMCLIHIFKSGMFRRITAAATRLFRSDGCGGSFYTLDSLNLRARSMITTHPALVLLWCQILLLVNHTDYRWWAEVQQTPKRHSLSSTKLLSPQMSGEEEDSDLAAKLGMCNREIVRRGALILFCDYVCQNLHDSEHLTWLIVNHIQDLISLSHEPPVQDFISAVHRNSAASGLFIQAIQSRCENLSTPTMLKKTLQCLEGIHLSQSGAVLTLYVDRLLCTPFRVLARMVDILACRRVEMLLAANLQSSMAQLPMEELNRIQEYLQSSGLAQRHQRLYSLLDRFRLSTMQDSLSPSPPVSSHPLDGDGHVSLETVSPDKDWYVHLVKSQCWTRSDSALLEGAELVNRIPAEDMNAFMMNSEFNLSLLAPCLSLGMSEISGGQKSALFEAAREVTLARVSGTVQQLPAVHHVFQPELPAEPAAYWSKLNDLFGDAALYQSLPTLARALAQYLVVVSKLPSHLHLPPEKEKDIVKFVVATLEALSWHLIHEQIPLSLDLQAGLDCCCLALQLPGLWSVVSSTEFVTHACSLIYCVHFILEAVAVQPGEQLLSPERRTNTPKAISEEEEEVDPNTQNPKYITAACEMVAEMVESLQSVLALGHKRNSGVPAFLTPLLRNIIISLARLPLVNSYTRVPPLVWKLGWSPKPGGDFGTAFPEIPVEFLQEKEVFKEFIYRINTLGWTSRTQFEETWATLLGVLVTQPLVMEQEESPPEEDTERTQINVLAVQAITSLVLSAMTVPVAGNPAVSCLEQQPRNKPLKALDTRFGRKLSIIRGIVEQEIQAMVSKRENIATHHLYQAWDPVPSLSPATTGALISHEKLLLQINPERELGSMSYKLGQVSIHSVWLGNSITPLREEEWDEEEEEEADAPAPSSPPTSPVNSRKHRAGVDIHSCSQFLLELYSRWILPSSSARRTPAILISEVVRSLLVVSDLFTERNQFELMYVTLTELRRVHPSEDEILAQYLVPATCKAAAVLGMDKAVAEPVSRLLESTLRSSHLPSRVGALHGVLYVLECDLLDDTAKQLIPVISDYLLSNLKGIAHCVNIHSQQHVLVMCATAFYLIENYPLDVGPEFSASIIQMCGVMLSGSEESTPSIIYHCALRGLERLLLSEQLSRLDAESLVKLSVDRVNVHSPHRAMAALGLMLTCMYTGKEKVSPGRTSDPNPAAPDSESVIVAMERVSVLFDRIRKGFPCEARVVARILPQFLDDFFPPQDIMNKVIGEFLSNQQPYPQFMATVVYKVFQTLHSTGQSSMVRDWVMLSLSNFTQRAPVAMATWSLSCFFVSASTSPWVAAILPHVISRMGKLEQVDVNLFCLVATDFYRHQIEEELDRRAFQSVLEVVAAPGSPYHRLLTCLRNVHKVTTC
One may read the IC50 as the concentration that inhibits the measured activity by half. With `Cn1cc2cc(-c3ccc(-c4cnc(N5CCNC(CO)C5)nn4)c(O)c3)cc(F)c2n1` (stereo unspecified), the IC50 came out at 1.6 nM.

Regarding `Cc1cn2cc(-c3ccc(-c4cnc(N5CCN[C@@H](C(C)C)C5)nn4)c(O)c3)ncc2n1`, the IC50 was 2.3 nM.

As for `CCC1CN(c2ncc(-c3ccc(-c4cc(F)c5nc(C)cn5c4)cc3O)nn2)CCN1` (stereo unspecified), the IC50 worked out at 2.2 nM.

Turning to `CC1CN(c2ncc(-c3ccc(-c4cc(F)c5nn(C)cc5c4)cc3O)nn2)CCN1` (stereo unspecified), the 50% inhibitory concentration (IC50) came to 2.1 nM.

For `Oc1cc(-c2c[nH]nc2F)ccc1-c1cnc(N2CCN[C@@H](C3CC3)C2)nn1`, the 50% inhibitory concentration (IC50) was 2.1 nM.

With `Cn1nc2cc(-c3ccc(-c4cnc(N5CCN[C@@H](C6CC6)C5)nn4)c(O)c3)cnc2n1`, the IC50 was found to be 1.7 nM.
